Measurements taken from patent EP3426634B1, “DISUBTITUTED AZETIDINES, PYRROLIDINES, PIPERIDINES AND AZEPANES AS INHIBITORS OF MONOAMINE OXIDASE B FOR THE TREATMENT OF NEURODEGENERATIVE DISEASES” (University of Ljubljana, priority 2016, dated 2018).

Assays:
hMAO-B [1] = target: T1, hMAO-B (Homo sapiens, UniProt P27338); test: Reversibility assay (100-fold dilution); type: biochemical; conditions: hMAO-B at 100-fold final concentration incubated 15 min at 37 °C with inhibitor at 10-fold the IC50, then diluted 100-fold; monitored 30 min
T1 construct: purchased Sigma Aldrich M7441; host or cells: baculovirus infected insect cells (BTI-TN-5B1-4)
T1 sequence (P27338 1-520): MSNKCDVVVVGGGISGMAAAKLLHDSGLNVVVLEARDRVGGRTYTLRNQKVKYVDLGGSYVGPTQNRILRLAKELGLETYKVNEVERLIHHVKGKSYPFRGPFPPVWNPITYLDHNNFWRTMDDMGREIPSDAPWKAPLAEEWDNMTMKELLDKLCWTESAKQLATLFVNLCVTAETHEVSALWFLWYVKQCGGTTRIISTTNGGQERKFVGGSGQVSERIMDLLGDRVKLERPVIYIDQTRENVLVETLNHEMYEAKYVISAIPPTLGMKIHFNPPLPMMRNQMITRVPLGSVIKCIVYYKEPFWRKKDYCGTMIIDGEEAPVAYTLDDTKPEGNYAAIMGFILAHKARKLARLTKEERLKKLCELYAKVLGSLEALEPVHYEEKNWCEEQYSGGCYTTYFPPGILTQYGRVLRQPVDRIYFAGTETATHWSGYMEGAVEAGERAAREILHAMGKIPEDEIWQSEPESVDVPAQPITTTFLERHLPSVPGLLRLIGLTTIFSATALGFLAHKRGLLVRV
Method: The final concentrations of all of the reagents and MAO-B were the same as in the assay described above. The reaction was monitored for 30 min. Control experiments were carried out in the same manner, where the inhibitor solution was replaced by DMSO.

hMAO-B [2] = target: T1, hMAO-B; test: Inhibition assay using human recombinant MAO-B (fluorimetric Amplex Red assay); type: biochemical; conditions: 1 mM p-tyramine, 15 min pre-incubation at 37 °C, pH 7.4, Amplex Red/horseradish peroxidase, read-out: hMAO-B IC50 [nM] ±SEM
Method: The inhibitory activity of the compounds was evaluated by their effects on the production of hydrogen peroxide (H2O2) from p-tyramine, a nonspecific substrate for both hMAO isoforms. The production of the H2O2 was detected using Amplex Red reagent in the presence of horseradish peroxidase, where a highly sensitive fluorescent product, resorufin, is produced at stoichiometric amounts. Recombinant human microsomal hMAO enzymes expressed in baculovirus infected insect cells (BTI-TN-5B1-4), horse-radish peroxidase (type II, lyophilized powder), and p-tyramine hydrochloride were purchased from Sigma Aldrich.
The production of resorufin was quantified on the basis of the fluorescence generated (λex= 530 nm, λem = 590 nm) at 37 °C over a period of 20 min, during which time the fluorescence increase linearly. For control experiments, DMSO was used instead of the appropriate dilutions of the compounds in DMSO. To determine the blank value (b), phosphate-buffered solution replaced the enzyme solution. The initial velocities were calculated from the trends obtained, with each measurement carried out in duplicate. The inhibitory potencies are expressed as the residual activities (RA = (vi-b) / (vo-b), where vi is the velocity in the presence of the test compounds, and v0 the control velocity in the presence of DMSO. The IC50 values were obtained by plotting residual enzyme activities against applied inhibitor concentration, with the experimental data fitted to a Hill four parameter equation (Equation (1)) using in-house python script and Gnuplot software. Y = Min + (Max−Min)/(1+10^(∧)((LogIC50−X)×Hillcoefficient)) [formula] where X represent logarithm of inhibitor concentration, and Y the residual activity.
The capacity of the test compounds to react directly with Amplex Red was determined by adding these compounds to a solution containing all of the components except the MAO isoenzyme.

SMILES | Activity of the enzyme after 100-fold dilution (in percentage ±SD) (hMAO-B [1]) | IC50 (hMAO-B [2])
C#CCCN1CCC(/C=C/c2ccc(F)cc2)CC1 [drawing 194] | 94.91 ±2.52 percentage | 
C#CCCN1CCC(/C=C/c2ccc(F)cc2)CC1 [drawing 173] |  | 475 ± 28.6 nM
C#CCN1CCCC(Cc2ccc(F)cc2)CC1 (stereo not drawn) [drawing 196] | 5.55 ±0.25 percentage | 
C#CCN1CCCC(Cc2ccc(F)cc2)CC1 (stereo not drawn) [drawing 183] |  | 59.2 ± 6 nM
C#CCCN1CCC(CCc2ccc(F)cc2)CC1 |  | 1700 ± 292 nM
C#CCN1CCC(=Cc2ccc(F)cc2)CC1 |  | 48800 ± 3240 nM
C#CCN1CCC(CCc2ccc(Br)cc2)CC1 |  | 1440 ± 140 nM
C#CCN1CCC(/C=C/c2ccc(F)cc2)C1 (stereo not drawn) |  | 17400 ± 2040 nM
C#CCN1CCCC(CCc2ccc(F)cc2)CC1 (stereo not drawn) |  | 250 ± 42.4 nM
C#CCCCN1CCC(/C=C/c2ccc(F)cc2)CC1 [drawing 195] | 74.01 ±2.76 percentage | 
C#CCN1CCC(/C=C/c2ccccn2)CC1 |  | 730 ± 85.6 nM
C#CCCCN1CCC(/C=C/c2ccc(F)cc2)CC1 [drawing 177] |  | 163 ± 17 nM
